Measurements from patent US20050101542A1, “Combination therapy for controlling appetites” (Regents of the University of California, priority 2002, published 2005).

Assays:
[1] = Plasma hormone levels by radioimmunoassay; format: in vivo, rat; conditions: 20 mg per kg i.p.
Procedure: Blood chemistry. Plasma β-hydroxybutyrate and glycerol were measured using commercial kits (Sigma, St. Louis, Mo.). Plasma prolactin, corticosterone and luteinizing hormone were quantified by radioimmunoassay (Navarro, et al., Neuroreport, 8:491-496 (1997)).

[2] = Other behavioral assays (elevated plus maze, open field, hot plate, rectal temperature); format: in vivo, rat
Procedure: Other behavioral assays. The elevated plus maze test was conducted as described (Navarro, et al., Neuroreport, 8:491-496 (1997)) after the administration of vehicle or OEA (20 mg per kg, i.p.). Horizontal activity in an open field (Beltramo et al., J. Neurosci., 20:3401-3407 (2000)) and pain threshold in the hot plate test (55° C.) (Beltramo et al., Science, 277:1094-1097 (1997)) were measured 15 min after injection of vehicle or OEA (20 mg per kg). Rectal temperature was measured using a digital thermometer (Martin-Calderón et al., Eur. J. Pharmacol., 344:77-86. (1998)).

[3] = Intracerebroventricular OEA on food intake in 24 h food-deprived rats; format: in vivo, rat; conditions: for food intake 60 min / food intake 120 min / food intake 240 min: 24 h food-deprived rats
Procedure: Feeding experiments. Acute experiments. Food intake was measured in 24-h food-deprived rats (Navarro, et al., J. Neurochem., 67:1982-1991 (1996)), administering drugs 15 min before food presentation. Subchronic experiments. Ad libitum fed rats received vehicle injections for three days. On day four, the animals were divided in two equal groups and gave them daily injections of vehicle or OEA (5 mg per kg at 1900 h) for 7 consecutive days, while measuring body weight, food intake and water intake.

iNOS = assay: Transrepression of iNOS expression in mouse jejunum; format: in vivo; conditions: jejunum of C57BL/6J mice; OEA or oleic acid 10, Wy-14643 30 mg kg^−1 i.p.
Procedure: Tissues were stored in RnaLater™ (Ambion), extracted total RNA with TRIzol™ (Invitrogen) and quantified it with Ribogreen™ (Molecular Probes). cDNA was synthesized by using SuperscriptII RNase H-reverse transcriptase (Invitrogen).
Reverse transcription of total RNA (2 μg) was performed using Oligo(dT)12-18 primer (0.2 μg) for 50 min at 42° C. Real Time Quantitative (RTQ) PCR was conducted using an ABI PRISM 7700 sequence detection system (Applied Biosystems). Primer/probe sets were designed using the Primer Express™ software and gene sequences available from the Genebank™ database. Primers and fluorogenic probes were synthesized by TIB (Adelphia). The primer/probe sequences for the mouse genes were:
RNA levels were normalized by using glyceraldehyde 3-phosphate dehydrogenase (GAPDH) as an internal standard. mRNA levels were measured by generating six-point serial standard curves using mouse total RNA. Estimates of relative mRNA abundance (in arbitrary units) were made by using the CT value (Schmittgen et al., 2000). Relative quantifications of RNAs of interest were made by using the 2^ΔCT formula, in which ΔCT was calculated by subtracting the CT value for GAPDH from the CT value for the gene of interest. This formula was validated for each primer/probe set by using six-point serial standard curves.

[4] = Liver OEA content after OEA injection in wild-type and PPAR-α null mice (HPLC/MS); format: in vivo, mouse; conditions: 1 h after OEA 5 mg kg^−1 i.p.
[5] = Acute feeding experiments in free-feeding mice (C57BL/6J, wild-type, PPARα-null); format: in vivo, mouse
Procedure: Acute experiments. Drugs or appropriate vehicles (saline, for CCK-8 and d-fenfluramine; dimethylsulfoxide/saline, 70/30, for all other agents; 4 ml-kg^−1; i.p.) were administered at 5:00-5:30 PM to free-feeding mice, which were habituated to the experimental setting.

[6] = Subchronic OEA in high-fat-fed obese wild-type and PPARα null mice; format: in vivo, mouse; conditions: 4 weeks; for hypercholesterolemia (serum cholesterol): 5 mg-kg^−1 once daily i.p.
Procedure: Subchronic experiments. Male wild-type and PPARα null mice were fed with a very high-fat diet (60 kcal % fat; D12492; Research Diets, NJ). […] The mice were divided into 4 groups (n=7-8 each), and treated them for 4 additional weeks with vehicle (saline/polyethylene glycol/Tween 80, 90/5/5; 1 ml-kg^−1) Or OEA (5 mg-kg^−1, once daily, i.p.). In a separate experiment, obese Zucker rats were treated for 2 weeks with vehicle or OEA (5 mg-kg^−1, once daily, i.p.), while maintaining them on a regular rodent chow (RMH 2500, Prolab). Food intake and body weight were measured daily. At the end of the experiments, the animals were fasted overnight, and tissues and blood samples collected for biochemical analyses.
Lipids were extracted from mouse liver and epidydimal adipose tissue (Bligh and Dyer, 1959) and measured triglycerides with a commercial kit (Sigma). Serum lipids and glucose were measured with an automated Synchron LX® system (Beckman-Coulter).

Astrocyte = assay: [14C]oleate oxidation to ketone bodies in astrocytes; format: cell-based, rat; conditions: 30 min incubation
Source text: This example illustrates the effect of OEA on fat metabolism and methods for studying the same. Oleoylethanolamide (OEA) decreases body weight not only by suppressing appetite, but also by possibly enhancing body fat catabolism. The effects of OEA on fatty acid oxidation in major body-fat burning tissues (soleus muscle, liver, cultured cardiac myocytes and astrocytes) was examined. […] In addition, OEA induces a significant mobilization of triacylglycerol stores from primary white adipose tissue cells. Table 4 details the methods and effects of OEA on fatty acid oxidation in these cells. Structure-activity relationship experiments provide evidence that the effect of OEA on skeletal muscle fatty acid oxidation is specific (FIG. 8).

[7] = obese wild-type mice, 5 mg-kg^−1 i.p. daily

## CCCCCCCC/C=C\CCCCCCCC(=O)NCCO [OEA, Z-2-hydroxyethyl octadec-9-enamide]
[1]
  activity of the hypothalamus-pituitary-adrenal (HPA) axis: did not alter
[2]; acute
  anxiety-like symptoms (elevated plus maze): did not produce
[2]; acute, 5 or 20 mg per kg
  body temperature: did not alter
  pain threshold (hot plate): did not alter
[2]; at a dose substantially higher than those required to produce hypophagia
  motor activity (open field): reduced
[3]; OEA 0.4 μg per animal i.c.v.
  food intake 60 min: 4.8 ± 0.4
  food intake 120 min: 6.6 ± 0.4
  food intake 240 min: 8.4 ± 0.4
[3]; OEA 2 μg per animal i.c.v.
  food intake 60 min: 4.9 ± 0.4
  food intake 120 min: 6.6 ± 0.6
  food intake 240 min: 8.7 ± 0.5
[3]; OEA 10 μg per animal i.c.v.
  food intake 60 min: 5.9 ± 0.2
  food intake 120 min: 8.1 ± 0.4
  food intake 240 min: 9.6 ± 0.7
[3]; i.c.v.
  effect on food intake after direct injection into the brain ventricles: ineffective
iNOS
  iNOS expression: significantly decreased
[4]; PPAR-α-null mice
  Liver OEA content: 251.2 ± 28.2 pmol/g
[4]; wild-type mice
  Liver OEA content: 150.5 ± 19.7 pmol/g
[5]; C57BL/6J mice
  meal pattern analysis (eating latency, meal size, post-meal interval): essentially identical
[5]; OEA 10 mg-kg^−1 i.p.
  feeding in wild-type mice: reduces feeding
[5]; OEA 10, Wy-14643 40, d-fenfluramine 4 mg-kg^−1, CCK-8 25 μg-kg^−1, i.p.
  feeding in PPARα-deficient mice: absent and not
[6]; high fat-fed PPARα-null mice
  hypercholesterolemia (serum cholesterol): ineffective
[6]; high fat-fed wild-type mice
  hypercholesterolemia (serum cholesterol): partially corrected
[6]; obese PPARα deficient mice, 5 mg-kg^−1 i.p. daily
  cumulative food intake and body-weight gain: no such effect
[6]; [7]
  body-weight gain: suppressed
  cumulative food intake (normalized for body mass): significantly reduced
Astrocyte
  Stimulatory effect of 10 μM OEA on [14C]oleate oxidation to ketone bodies: 2 ± 6 (n = 3) %
